Source: BindingDB's records for PubMed 3549712 (University of Chicago, 1987)

Target: Trp operon repressor (Escherichia coli (strain K12), UniProt P0A881)
Assay: Binding Assay
Source text: Binding assay of L-trptophan and analogues to trp aporepressor

SMILES | Kd [µM]
c1ccc2[nH]ccc2c1 | 25.1
Cn1cc(CC(N)C(=O)O)c2ccccc21 [1-Methyl-L-tryptophan, 8] | 26.4
O=C(O)/C=C/c1c[nH]c2ccccc12 [3-Beta-Indole-acrylic acid (Tran), 1] | 0.516
NC(Cc1c[nH]c2ccc(O)cc12)C(=O)O [5-Hydroxy-L-tryptophan, 22] | 2840
COc1ccc2[nH]cc(CC(N)C(=O)O)c2c1 [5-Methoxyu-L-tryptophan, 11] | 30.7
Cc1ccc2[nH]cc(CC(N)C(=O)O)c2c1 [5-Methyl-L-tryptophan, 2] | 3.25
Cc1ccc2[nH]cc(CCN)c2c1 [5-Methyl-tryptamine, 10] | 28.8
NC(Cc1c[nH]c2cc([N+](=O)[O-])ccc12)C(=O)O [6-Nitro-L-tryptophan, 17] | 75.6
NC(Cc1c[nH]c2ncccc12)C(=O)O [7-Aza-L-tryptophan, 21] | 466
O=C(O)Cc1c[nH]c2ccccc12 [Indole-3-acetic acid, 16] | 72.9
O=C(O)CCCc1c[nH]c2ccccc12 [Indole-3-butyric acid, 3] | 5.51
O=C(O)CCc1c[nH]c2ccccc12 [Indole-3-propionic acid, 4] | 9.74
c1ccc2c(c1)CCN2 [Indoline, 19] | 174
O=C(O)C(O)Cc1c[nH]c2ccccc12 [L-Indole-3-lactic acid, 13] | 35.2
NC(Cc1ccccc1)C(=O)O [L-Phenylalanine, 23] | > 3000
COC(=O)C(N)Cc1c[nH]c2ccccc12 [L-Tryptophan methyl ester, 14] | 37.1
NC(=O)C(N)Cc1c[nH]c2ccccc12 [L-Tryptophanamide, 9] | 27.7
O=CNC(Cc1c[nH]c2ccccc12)C(=O)O [N-Formyl-L-tryptophan, 18] | 117
NCCc1c[nH]c2ccccc12 [Tryptamine, 15] | 41.1
OCCc1c[nH]c2ccccc12 [Tryptaphol, 6] | 23.3
